Data set [1] in a line: Oral bioavailability in rat at 3 mg/kg measured upto 24 hrs by LC-MS analysis. The format is ADME, organism-based. The following applies: in vivo.
Data set [2] can be described thus: MRT in dog at 3 mg/kg, po or 1 mg/kg, iv measured upto 24 hrs by LC-MS analysis. The format is ADME, organism-based, Canis lupus familiaris. The following applies: in vivo.
Data set [3] in a line: Oral bioavailability in rat. The format is ADME, organism-based. Particulars: in vivo.
For data set [4], the target named is Replicase polyprotein 1ab (Severe acute respiratory syndrome coronavirus 2, UniProt P0DTD1). The data set is described as follows: Inhibition of wild type recombinant SARS-CoV-2 3CLpro (1 to 306 residues) expressed in Escherichia coli (DE3) competent cells using CP488-ESATLQSGLRKAK-(CPQ2)-NH2 as substrate preincubated for 30 mins followed by substrate addition and measured after 4 hrs by FRET assay.

A short description of data set [5]: Apparent permeability in MDCK cells. The format is ADME, cell-based, Canis lupus familiaris. Particulars: dog.
Data set [6] has as its target T1, Nuclear receptor subfamily 1 group I member 2 (Homo sapiens, UniProt O75469).
T1 sequence (O75469 whole entry): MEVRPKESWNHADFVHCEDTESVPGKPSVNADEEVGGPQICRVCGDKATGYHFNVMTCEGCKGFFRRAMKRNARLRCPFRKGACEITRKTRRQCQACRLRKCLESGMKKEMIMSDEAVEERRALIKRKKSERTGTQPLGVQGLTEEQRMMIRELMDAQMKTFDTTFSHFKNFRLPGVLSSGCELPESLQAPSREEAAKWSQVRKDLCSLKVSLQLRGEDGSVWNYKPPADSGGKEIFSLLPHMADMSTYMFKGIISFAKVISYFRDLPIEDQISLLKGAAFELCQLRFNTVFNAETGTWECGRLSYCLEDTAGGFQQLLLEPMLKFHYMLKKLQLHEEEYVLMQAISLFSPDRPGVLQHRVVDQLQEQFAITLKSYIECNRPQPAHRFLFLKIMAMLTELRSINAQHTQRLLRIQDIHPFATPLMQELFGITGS
The data set is described as follows: Activation of PXR (unknown origin). The format is toxicity.

In a further data set the target is CYP3A4 (Homo sapiens, UniProt P08684). In words: Ratio of IC50 for time dependent inhibition of CYP3A4 in human liver microsomes incubated for 30 mins in presence of NADPH to IC50 for time dependent inhibition of CYP3A4 in human liver microsomes incubated for 30 mins in absence of NADPH. Further details: species or system Microsome. The following applies: read-out: Ratio IC50. In general terms: Microsomes from liver hold many membrane-bound enzymes, among them those of drug oxidation.
CYP3A4, sequence (P08684 whole entry): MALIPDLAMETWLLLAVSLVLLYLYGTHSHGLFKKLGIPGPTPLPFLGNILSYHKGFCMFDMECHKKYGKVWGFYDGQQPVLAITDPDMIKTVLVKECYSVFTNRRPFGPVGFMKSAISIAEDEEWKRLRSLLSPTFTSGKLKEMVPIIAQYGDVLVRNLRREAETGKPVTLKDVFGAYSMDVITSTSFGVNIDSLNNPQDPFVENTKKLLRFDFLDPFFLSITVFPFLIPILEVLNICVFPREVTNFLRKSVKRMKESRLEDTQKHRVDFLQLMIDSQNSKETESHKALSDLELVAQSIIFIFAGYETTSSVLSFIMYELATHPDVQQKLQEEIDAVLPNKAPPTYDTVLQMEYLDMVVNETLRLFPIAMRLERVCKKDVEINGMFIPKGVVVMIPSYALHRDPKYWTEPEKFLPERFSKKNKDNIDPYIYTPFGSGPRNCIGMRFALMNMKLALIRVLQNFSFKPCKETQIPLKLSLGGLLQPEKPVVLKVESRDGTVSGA

A short description of data set [7]: Oral bioavailability in Wistar-Han rat at 2 mg/kg. The format is ADME, organism-based. Particulars: in vivo.

What is called bioavailability is the share of a dose that reaches the circulation, judged against a reference dose that is usually intravenous. High values mean much systemic uptake, low ones little systemic uptake. Broadly, the MRT is the average time that molecules of a dose stay in the body. Usually IC50 stands for the concentration that gives 50% inhibition. The Papp is the rate of passage across a membrane or cell layer, normalised by area and donor concentration. As a reminder, the EC50 is the midpoint of the concentration-response curve. Low readings indicate a more potent agent, high ones a less potent agent.

The molecule `COC(=O)N[C@H](C(=O)N1C[C@H]2[C@@H]([C@H]1C(=O)N[C@@H](CCC(C)(F)F)C(=O)C(=O)NC1CC1)C21CCOCC1)C(C)(C)C` displayed a bioavailability in data set [1] of 40%. Moreover, the MRT in data set [2] stood at 2.4 h.

`CC(C)C[C@H](NC(=O)OCc1ccccc1)C(=O)N[C@@H](C[C@@H]1CCNC1=O)C(O)S(=O)(=O)[O-].[Na+]` (stereo partly drawn) gave a bioavailability in data set [3] of 3%.

Regarding `CC(F)(F)CC[C@H](NC(=O)[C@@H]1[C@@H]2[C@H](CN1C(=O)[C@@H](NC(=O)NC1(CS(=O)(=O)C(C)(C)C)CCCCC1)C(C)(C)C)C2(C)C)C(=O)C(=O)NC1CC1`, the IC50 in data set [4] stood at 0.129 µM.

Regarding `COC(=O)N[C@H](C(=O)N1CC2(CCOCC2)C[C@H]1C(=O)N[C@@H](CCC(C)(F)F)C(=O)C(=O)NC1CC1)C(C)(C)C`, the IC50 in data set [4] is 0.297 µM.

Regarding `COC(=O)N[C@H](C(=O)N1CC2(CCCCC2)C[C@H]1C(=O)N[C@@H](CCC(F)(F)F)C(=O)C(=O)NC1CC1)C(C)(C)C`, the IC50 in data set [4] stood at 0.382 µM.

In the case of `COC(=O)N[C@H](C(=O)N1CC2(CCCCC2)C[C@H]1C(=O)N[C@@H](CC1CC1(F)F)C(=O)C(=O)NC1CC1)C(C)(C)C` (stereo partly drawn), the IC50 in data set [4] turned out to be 0.355 µM.

As to `COC(=O)N[C@H](C(=O)N1CCC2(CC2)C[C@H]1C(=O)N[C@@H](CCC(C)(F)F)C(=O)C(=O)NC1CC1)C(C)(C)C`, in data set [1], the bioavailability came out at 60%. Besides, in data set [2], the MRT was found to be 3.6 h. For the same molecule, in data set [5], the Papp was found to be 160 nm/s.

In turn, `CNC(=O)C(=O)[C@H](CCC(C)(F)F)NC(=O)[C@@H]1CC2(CCCCC2)CN1C(=O)[C@@H](NC(=O)OC)C(C)(C)C` registered an EC50 in data set [6] of 5.8 µM. Also, the IC50 shift at 0.5 h on CYP3A4 is greater than 1.6.

Consider `CC(F)(F)CC[C@H](NC(=O)[C@@H]1CC2(CCCCC2)CN1C(=O)[C@@H](NC(=O)OCc1ccccc1)C1CCCCC1)C(=O)C(=O)NC1CC1`, for which the IC50 in data set [4] was 0.016 µM.

`COC(=O)N[C@H](C(=O)N1C[C@@H]2CCC[C@@H]2[C@H]1C(=O)N[C@@H](CCC(C)(F)F)C(=O)C(=O)NC1CC1)C(C)(C)C` returned a bioavailability in data set [1] of 47%. The molecule also gave an MRT in data set [2] of 2.7 h.

As to `CC(C)(C)NC(=O)N[C@H](C(=O)N1C[C@H]2[C@@H]([C@H]1C(=O)N[C@@H](C[C@@H]1CCNC1=O)C(=O)C(N)=O)C2(C)C)C(C)(C)C`, in data set [3], the bioavailability came to 0.2%. Further, the Papp in data set [5] is less than 11.3 nm/s.

Regarding `COC(=O)N[C@H](C(=O)N1CC2(C[C@H]1C(=O)N[C@@H](CCC(C)(F)F)C(=O)C(=O)NC1CC1)CC2(F)F)C(C)(C)C` (stereo partly drawn), the MRT in data set [2] was 3.2 h.

Turning to `COC(=O)N[C@H](C(=O)N1CC2(CCCCC2)C[C@H]1C(=O)N[C@@H](CCC(C)(F)F)C(=O)C(=O)NCc1ccncc1)C(C)(C)C`, in data set [4], the IC50 stood at 0.03 µM. The EC50 in data set [6] is greater than 30 µM. Moreover, on CYP3A4, the IC50 shift at 0.5 h was roughly 1.

Consider `COC(=O)N[C@H](C(=O)N1CC[C@@H](C(F)(F)F)C[C@H]1C(=O)N[C@@H](CCC(C)(F)F)C(=O)C(=O)NC1CC1)C(C)(C)C`, for which the bioavailability in data set [1] came to 40%. Also, the MRT in data set [2] is 8.6 h.

For the molecule `CC(F)(F)CC[C@H](NC(=O)[C@@H]1CC2(CCCCC2)CN1C(=O)c1cc2ccccc2[nH]1)C(=O)C(=O)NC1CC1`, the IC50 in data set [4] worked out at 0.064 µM.

For the molecule `CCCC[C@H](NC(=O)[C@@H]1CC2(CCCCC2)CN1C(=O)[C@@H](NC(=O)OC)C(C)(C)C)C(=O)C(=O)NC1CC1`, the IC50 in data set [4] was determined as 0.715 µM.

`COC(=O)N[C@H](C(=O)N1CC2(CCC(F)(F)CC2)C[C@H]1C(=O)N[C@@H](CCC(C)(F)F)C(=O)C(=O)NC1CC1)C(C)(C)C`: the IC50 in data set [4] is 0.27 µM.

Consider `COC(=O)N[C@H](C(=O)N1CC2(CCCCC2)C[C@H]1C(=O)N[C@@H](CCC(F)F)C(=O)C(=O)NC1CC1)C(C)(C)C`, for which, in data set [4], the IC50 was 0.123 µM.

As to `COC(=O)N[C@H](C(=O)N1CC2(CCCCC2)C[C@H]1C(=O)N[C@@H](CCC(C)(F)F)C(=O)C(=O)NC1CC1)C(C)(C)C`, in data set [4], the IC50 amounted to 0.011 µM. The molecule further yielded an EC50 in data set [6] of 6.8 µM. This molecule also displayed a bioavailability in data set [1] of 26%. Also, the MRT in data set [2] stood at 0.8 h. The IC50 shift at 0.5 h on CYP3A4 was greater than 1.3.

As to `CC(F)(F)CC[C@H](NC(=O)[C@@H]1CC2(CCCCC2)CN1C(=O)C(O)c1cccc(F)c1)C(=O)C(=O)NC1CC1` (stereo partly drawn), the IC50 in data set [4] was determined as 0.056 µM.

In the case of `CC(C)(C)CC(=O)N1CC2(CCCCC2)C[C@H]1C(=O)N[C@@H](CCC(C)(F)F)C(=O)C(=O)NC1CC1`, in data set [4], the IC50 stood at 0.89 µM.

`COC(=O)N[C@H](C(=O)N1C[C@@H]2CCC[C@@H]2[C@H]1C(=O)N[C@@H](CC[C@H](C)F)C(=O)C(=O)NC1CC1)C(C)(C)C`: the IC50 in data set [4] came to 0.023 µM.

For `COC(=O)N[C@H](C(=O)N1CC2(CCCCC2)C[C@H]1C(=O)N[C@@H](CCC(C)(F)F)C(=O)C(=O)NC1CCCCC1)C(C)(C)C`, the IC50 in data set [4] was 0.077 µM. Further, the EC50 in data set [6] stood at 2.3 µM. Moreover, on CYP3A4, the IC50 shift at 0.5 h was greater than 6.

Turning to `COC(=O)N[C@H](C(=O)N1C[C@@H]2CCC[C@@H]2[C@H]1C(=O)N[C@@H](CC[C@@H](C)F)C(=O)C(=O)NC1CC1)C(C)(C)C`, the IC50 in data set [4] is 0.011 µM.

In the case of `CNC(=O)C(=O)[C@H](CCC(C)(F)F)NC(=O)[C@@H]1C[C@H](C(F)(F)F)CCN1C(=O)[C@@H](NC(=O)OC)C(C)(C)C`, the bioavailability in data set [1] is 63%. In data set [2], this molecule came in with an MRT of 3.1 h.

For the molecule `COC(=O)N[C@H](C(=O)N1CC2(CCCCC2)C[C@H]1C(=O)N[C@@H](CCC(C)(F)F)C(=O)C(N)=O)C(C)(C)C`, the IC50 in data set [4] amounted to 0.025 µM. This molecule also had an EC50 in data set [6] greater than 30 µM. Also, the IC50 shift at 0.5 h on CYP3A4 is greater than 1.

For `COC(=O)N[C@H](C(=O)N1CC2(CCCCC2)C[C@H]1C(=O)N[C@@H](CCC(C)(F)F)C(=O)C(=O)NCc1ccccc1)C(C)(C)C`, in data set [6], the midpoint of the response, the EC50, lay at 3.9 µM. Moreover, at CYP3A4, the IC50 shift at 0.5 h was greater than 3.1.

As for `COC(=O)N[C@H](C(=O)N1C[C@@H]2CCC[C@@H]2[C@H]1C(=O)N[C@@H](CCC(C)(C)F)C(=O)C(=O)NC1CC1)C(C)(C)C`, the IC50 in data set [4] worked out at 0.026 µM.

On to `COc1cccc2[nH]c(C(=O)N[C@@H](CC(C)C)C(=O)N[C@@H](C[C@@H]3CCNC3=O)C(=O)CO)cc12` [PF-00835231], for which the bioavailability in data set [7] is less than 2%.

The values above are taken from ChEMBL document CHEMBL5528064, “Invention of MK-7845, a SARS-CoV-2 3CL Protease Inhibitor Employing a Novel Difluorinated Glutamine Mimic” (J Med Chem, 2024).
